Earlier results as cited in patent US20110091560A1, “COMPOSITIONS OF NANOPARTICLES AND METHODS OF MAKING THE SAME” (The Burnham Institute for Medical Research, priority 2009, published 2011).
Counter-ions that a name gives are not always drawn.

Settings: Log P, octanol and water

First: Nc1ccn([C@@H]2O[C@H](CO)[C@@H](O)C2(F)F)c(=O)n1 [gemcitabine]
Second: Nc1nc(F)nc2c1ncn2[C@@H]1O[C@H](CO)[C@@H](O)[C@@H]1O [fludarabine]
The “Partition Coefficient” value of the first is lower: −1.4 for the first, −1.3 for the second.

Compared with O=C(/C=C/c1ccc(CN(CCO)CCc2c[nH]c3ccccc23)cc1)NO [Dacinostat], Cc1[nH]c2ccccc2c1CCNCc1ccc(/C=C/C(=O)NO)cc1 [Panobinostat] is higher in “Partition Coefficient” value: 2.1 for the first, 2.8 for the second.

Compared with CN(C)CCOc1ccc(/C(=C(/CCCl)c2ccccc2)c2ccccc2)cc1 [Toremifene], Nc1ccccc1NC(=O)c1ccc(CNC(=O)OCc2cccnc2)cc1 [Entinostat] is lower in “Partition Coefficient” value: 5.7 for the first, 3.1 for the second.

First: NCCC(O)(P(=O)(O)O)P(=O)(O)O [Pamidronate]
Second: CC(O)(P(=O)(O)O)P(=O)(O)O [Etidronate]
The “Partition Coefficient” value of the first is lower: −7 for the first, −6 for the second.

Compared with CCCCCN(C)CCC(O)(P(=O)(O)O)P(=O)(O)O [Ibandronate sodium], O=P(O)(O)C(O)(Cc1cccnc1)P(=O)(O)O [Risedronate] is lower in “Partition Coefficient” value: −4.4 for the first, −5.8 for the second.

Going from COc1cc2ncnc(Nc3ccc(F)c(Cl)c3)c2cc1OCCCN1CCOCC1 [Gefitinib] to C#Cc1cccc(Nc2ncnc3cc(OCCOC)c(OCCOC)cc23)c1 [Erlotinib HCl], the “Partition Coefficient” value falls from 4.5 to 3.9.

First: O=P(O)(O)C(Cl)(Cl)P(=O)(O)O [Clodronate]
Second: O=P(O)(O)C(Sc1ccc(Cl)cc1)P(=O)(O)O [Tiludronate]
The “Partition Coefficient” value of the first is lower: −5.6 for the first, 2.3 for the second.

Compared with N#Cc1ccc(C(c2ccc(C#N)cc2)n2cncn2)cc1 [Letrozole], CC(C)(C#N)c1cc(Cn2cncn2)cc(C(C)(C)C#N)c1 [Anastrozole] is higher in “Partition Coefficient” value: 3.1 for the first, 3.5 for the second.

First: NC(=O)N1CCC(CC(=O)N2CCC([C@H]3c4ncc(Br)cc4CCc4cc(Cl)cc(Br)c43)CC2)CC1 [Lonafarnib]
Second: Cc1nc(Nc2ncc(C(=O)Nc3c(C)cccc3Cl)s2)cc(N2CCN(CCO)CC2)n1 [Dasatinib]
The “Partition Coefficient” value of the first is lower: 3.1 for the first, 3.9 for the second.

First: CC(C)C[C@H](NC(=O)[C@H](Cc1ccccc1)NC(=O)c1cnccn1)B(O)O [Bortezomib]
Second: Nc1ccccc1NC(=O)c1ccc(CNc2nccc(-c3cccnc3)n2)cc1 [Mocetinostat]
The “Partition Coefficient” value of the first is lower: −0.4 for the first, 2.7 for the second.

First: O=c1[nH]cc(F)c(=O)[nH]1 [Example 5-FU, 5-FU]
Second: C[C@]1(c2nc3c(C(N)=O)cccc3[nH]2)CCCN1 [Veliparib (ABT-888), Veliparib]
The “Partition Coefficient” value of the first is lower: −0.6 for the first, 1 for the second.

First: C=C1C[C@@H]2[C@H](CC[C@]3(C)C(=O)CC[C@@H]23)[C@@]2(C)C=CC(=O)C=C12 [Exemestane]
Second: C[C@]12CCC(=O)C(O)=C1CC[C@@H]1[C@@H]2CC[C@]2(C)C(=O)CC[C@@H]12 [Formestane]
The “Partition Coefficient” value of the first is higher: 3.8 for the first, 3.1 for the second.

Going from C=CCNC1=C2C[C@@H](C)C[C@H](OC)[C@H](O)[C@@H](C)/C=C(\C)[C@H](OC(N)=O)[C@@H](OC)/C=C\C=C(/C)C(=O)NC(=CC1=O)C2=O [Example 17-AAG, 17-AAG] to CO[C@H]1C[C@@H]2CC[C@@H](C)[C@@](O)(O2)C(=O)C(=O)N2CCCC[C@H]2C(=O)O[C@H]([C@H](C)C[C@@H]2CC[C@@H](O)[C@H](OC)C2)CC(=O)[C@H](C)/C=C(\C)[C@@H](O)[C@@H](OC)C(=O)[C@H](C)C[C@H](C)/C=C/C=C/C=C/1C [Rapamycin], the “Partition Coefficient” value rises from 3.4 to 6.9.

Going from CC1=C(CO)C2=C(C)C3(CC3)[C@@](C)(O)C(=O)C2=C1 [Irofulven] to CC(=O)O[C@H]1C(=O)[C@@]2(C)[C@H]([C@H](OC(=O)c3ccccc3)[C@]3(O)C[C@H](OC(=O)[C@H](O)[C@@H](NC(=O)c4ccccc4)c4ccccc4)C(C)=C1C3(C)C)[C@]1(OC(C)=O)CO[C@@H]1C[C@@H]2O [Paclitaxel], the “Partition Coefficient” value falls from 4.7 to 3.6.

First: C[C@]12CC[C@@H]3c4ccc(O)cc4C[C@@H](CCCCCCCCC[S+]([O-])CCCC(F)(F)C(F)(F)F)[C@H]3[C@@H]1CC[C@@H]2O (some centres unmarked) [Fulvestrant (SERD), Fulvestrant]
Second: O=C(CCCCCCC(=O)Nc1ccccc1)NO [Vorinostat (SAHA), Vorinostat]
The “Partition Coefficient” value of the first is higher: 8.5 for the first, 1.4 for the second.

First: O=P1(N(CCCl)CCCl)NCCCO1 (centres unmarked) [cyclosphosphamide]
Second: CCCC(CCC)C(=O)O [Valproic acid]
The “Partition Coefficient” value of the first is lower: 0.3 for the first, 2.6 for the second.

Going from Cc1nc(N)nc(N)c1-c1ccc(Cl)c(Cl)c1 [Metoprine] to CN(Cc1cnc2nc(N)nc(N)c2n1)c1ccc(C(=O)N[C@@H](CCC(=O)O)C(=O)O)cc1 [methotrexate], the “Partition Coefficient” value falls from 2.6 to −0.7.

CO[C@H]1C[C@@H]2CC[C@@H](C)[C@@](O)(O2)C(=O)C(=O)N2CCCC[C@H]2C(=O)O[C@H]([C@H](C)C[C@@H]2CC[C@@H](OC(=O)C(C)(CO)CO)[C@H](OC)C2)CC(=O)[C@H](C)/C=C(\C)[C@@H](O)[C@@H](OC)C(=O)[C@H](C)C[C@H](C)/C=C/C=C/C=C/1C [Temsirolimus] and CO[C@H]1C[C@@H]2CC[C@@H](C)[C@@](O)(O2)C(=O)C(=O)N2CCCC[C@H]2C(=O)O[C@H]([C@H](C)C[C@@H]2CC[C@@H](OCCO)[C@H](OC)C2)CC(=O)[C@H](C)/C=C(\C)[C@@H](O)[C@@H](OC)C(=O)[C@H](C)C[C@H](C)/C=C/C=C/C=C/1C [Everolimus] are the same in “Partition Coefficient” value: 6.8 for the first, 6.8 for the second.

Compared with CS(=O)(=O)CCNCc1ccc(-c2ccc3ncnc(Nc4ccc(OCc5cccc(F)c5)c(Cl)c4)c3c2)o1 [Lapatinib], O=C(c1ccc(OCCN2CCCCC2)cc1)c1c(-c2ccc(O)cc2)sc2cc(O)ccc12 [Raloxifene] is higher in “Partition Coefficient” value: 5.1 for the first, 6.3 for the second.

First: COc1cc([C@@H]2c3cc4c(cc3[C@@H](O[C@@H]3O[C@@H]5CO[C@@H](C)O[C@H]5[C@H](O)[C@H]3O)[C@H]3COC(=O)[C@H]23)OCO4)cc(OC)c1O [etoposide]
Second: O=C(/C=C/c1cccc(S(=O)(=O)Nc2ccccc2)c1)NO [Belinostat]
The “Partition Coefficient” value of the first is lower: 0.06 for the first, 1 for the second.

Same assay, conditions: Log P, octanol and water; listed as paclitaxel

In the case of CC(=O)O[C@H]1C(=O)[C@@]2(C)[C@H]([C@H](OC(=O)c3ccccc3)[C@]3(O)C[C@H](OC(=O)[C@H](O)[C@@H](NC(=O)c4ccccc4)c4ccccc4)C(C)=C1C3(C)C)[C@]1(OC(C)=O)CO[C@@H]1C[C@@H]2O [Paclitaxel], the “Partition Coefficient” value is listed as “about 3.6”.
